The values below come from patent US12186283B2, “Bismuth-thiol compositions and methods of use” (Microbion Corporation, priority 2018, dated 2025).

In brackets after ≈: the same amount, converted by molar mass. Read-outs that look alike come from different tables or passages of the source. Marks after values point to notes of the source that are not given here.

For one data set, the system named is Candida krusei. The data set can be described thus: Broth microdilution MIC, yeast (Example 13). Type of data set: cell-based. To be noted: for MIC: Pichia kudriavzevii. On the technique in general: Broth dilution looks for growth in wells or tubes with falling amounts of substance.
The subject of data set [1] is S. aureus ATCC 29213. The experiment in a line: Broth microdilution MIC, QC organism (Example 13, Table 110). Type of data set: cell-based, Staphylococcus aureus. The source says: MECs were only reported where observed.
For data set [2], the system named is Achromobacter spp. biofilm. The experiment in a line: Activity against biofilms. As to conditions: tested up to 250 μg/mL.
For data set [3], the system named is MUCILAIR™ fully differentiated human airway epithelium. The experiment in a line: Acute toxicity on […] fully differentiated human airway epithelium (LDH, TEER, morphology). It counts as cell-based. Here is the method:
Controlled in vitro evaluation of BisEDT, with respect to potential cytotoxicity on fully differentiated human airway epithelium was carried out. Both solubilized and solid (powder/particulate) forms of BisEDT were evaluated for cytotoxicity by Epithelix, a contract research organization (CRO) specializing in this form of cytotoxicity evaluation utilizing a proprietary, in vitro fully differentiated human airway epithelium test system ([…]™). The […]™ system facilitated evaluation of cytotoxicity through both LDH release (from the culture medium side) and trans-epithelial electrical resistance (TEER) from the apical/air-exposed side as well as pre- and post-exposure microscopic examination for morphological changes (FIG. 13).
The assay system used in this study is Epithelix's proprietary technology sold under the trademark […]™ […]™ is a fully differentiated and ready-to-use 3D model of human airway epithelium, constituted with primary human epithelial cells freshly isolated from nasal, tracheal or bronchial biopsies. […]™ (FIG. 24), is not only morphologically and functionally differentiated, but can also be maintained in a homeostatic state for a long period of time (Huang et al., 2009).
[…]™ is composed of basal cells, ciliated cells and mucus cells. The proportion of these various cell types is preserved compared to what one observes in vivo (Huang et al., 2011). Moreover the epithelia are started from de-differentiated cells. The cells undergo a progressive differentiation with time. After 45 days of culture, the epithelia are fully ciliated, secret mucus and are electrically tight (TEER>200 (2 Ω·cm^2). The activity of the main epithelial ionic channels, such as CFTR, EnaC, Na/K ATPase, is preserved and the epithelia is shown to respond in a regulated and vectorial manner to the pro-inflammatory stimulus, TNF-α (Huang et al., 2011). A large panel of cytokines, chemokines and metalloproteinases has been detected in […]™ (e.g. IL-8, IL-6, GM-CSF, MMP-9, GRO-α).
BisEDT (MB-1-B3) was applied on the apical surface of […]™ during 1, 8, 24 and 48 hours (FIG. 13). The effect of 6 concentrations was studied: 0.001, 0.01, 0.1, 1, 10 and 30 uM. […] 30 μl solution at the selected concentration was applied on the apical surface of […]™. The negative control corresponds to the vehicle solution (0 μM) and untreated cultures. The positive control corresponds to 50 μl to 10% Triton X-100 diluted in a buffered saline solution. The study was run in triplicates.
During the study, inserts were maintained in a CO2 incubator (37° C., 5% CO2, 100% humidity). The following end-points were determined: • Tissue integrity monitoring: Trans-Epithelial Electrical Resistance (TEER) measurement (quantitative) at D0, D1 and D2. • Cytotoxicity monitoring: LDH test (quantitative) at D0, D1 and D2. • Morphology: cellular and tissue integrity examined under contrast microscope at DO, D1 and D2.
Compound BisEDT was applied on the apical surface of […]™. The effect of 5 concentrations after 1, 8, 24 and 48 hours exposure was studied: 0.033, 0.33, 3.33, 33.3, 333 μg/cm^2. The compound was diluted in Dextran powder at the targeted concentration and compressed in order to obtain a tablet. The study was run in triplicates. During the study, inserts were maintained in a CO2 incubator (37° C., 5% CO2, 100% humidity).
Compound BisEDT was applied on the apical surface of […]™. The effect of 1 μg/cm^2 concentrations after 1, 8, 24 and 48 hours exposure was studied. The compound was diluted in Dextran powder at the targeted concentration and compressed in order to obtain a tablet. The study was run in triplicates. During the study, inserts were maintained in a CO2 incubator (37° C., 5% CO2, 100% humidity).

The next data set deals with E. coli ATCC 25922. As to conditions: control strain ATCC 25922 E. coli; per CLSI M100-S24 or provided by Microbion; cited from earlier work.
The subject of data set [4] is S. aureus ATCC 29213. As to conditions: S. aureus ATCC 29213, QC organism; cited from earlier work.
In data set [5] the test system is S. aureus ATCC 29213. As to conditions: CLSI established QC range; cited from earlier work.
In another data set the test system is Klebsiella pneumoniae. To be noted: K. pneumoniae ATCC BAA-1705, QC organism; cited from earlier work.
Data set [6] has as its system Burkholderia cepacia complex. The experiment in a line: Broth microdilution MIC (Example 10). To be noted: initial MIC testing.
The mark [7] stands for this setting: BisEDT as solid, 1 μg/cm^2, 1 hour exposure.
[8] abbreviates: BisEDT as solid, 0.033 and 0.33 μg/cm^2, all tested time points.
The mark [9] stands for this setting: BisEDT in solution 0.001-30 μM apical, 1, 8, 24 and 48 hours.

Turning to `CC(S)C(C)S.[Bi]` (stereo not shown) [BisBDT, bismuth-2,3-butanedithiol], the “MIC 24 hr, second value of the pair x/y” value in the data set with Candida krusei (C. krusei ATCC 6258 (QC, Table 110), 24 hr, footnote b not given) is recorded as 1. Besides, the “MIC 48 hr, second value of the pair x/y” value against Candida krusei (C. krusei ATCC 6258 (QC, Table 110), 48 hr, footnote b not given) was determined as 4. For the same compound, the “MIC 48 hr, first value of the pair x/y” value with Candida krusei (C. krusei ATCC 6258 (QC, Table 110), 48 hr, footnote b not given, probably MIC2) turned out to be 1. The MIC in the data set on Candida krusei (read-out: MIC2 (50% inhibition)) amounted to 0.5 µg/mL; in the data set with Candida krusei (read-out: MIC2 (50% inhibition), C. krusei MMX 7125, Susceptible) it was 0.5 µg/mL; in the data set with Candida krusei (read-out: MIC2 (50% inhibition), C. krusei MMX 7155, Susceptible), 0.5 µg/mL; with Candida krusei (read-out: MIC2 (50% inhibition), C. krusei MMX 7563, Susceptible) it was 0.5 µg/mL; with Candida krusei (read-out: MIC2 (50% inhibition), C. krusei MMX 9878, MICA-I, VORI-I), 0.5 µg/mL. Moreover, the “MIC 24 hr” value against S. aureus ATCC 29213 [1] is 1^a. Besides, in data set [2], the “reduction in viable biofilm cells” value was found to be 5 log.

For the compound `C1C[S][Bi]([S]CC[S][Bi]2[S]CC[S]2)[S]1` [BisEDT, bismuth-1,2-ethanedithiol], the morphology after exposure entry is “Cells were rounded and opaque at the periphery of inserts” in data set [3] (BisEDT as solid in dextran tablet, 3.33 μg/cm^2, 24 and 48 h); “No morphological modifications were observed” in data set [3] (BisEDT as solid in dextran tablet, 0.033 and 0.33 μg/cm^2); “Cells were rounded and opaque on the inserts” in [3] (BisEDT as solid in dextran tablet, 33.3 and 333 μg/cm^2, 8, 24 and 48h); “no important morphological changes were observed” in data set [3] (BisEDT as solid, 1 μg/cm^2, 1 hour and 8 hour exposure); “the epithelial cells on 2 inserts out of 3 were dead” in [3] (BisEDT as solid, 1 μg/cm^2, 24h exposure); “the epithelial cells on all 3 inserts were dead” in [3] (BisEDT as solid, 1 μg/cm^2, 48 h exposure). Besides, the morphology after exposure result in [3] (setting [9]) is “No morphology changes were observed”. Besides, the “tissue integrity (TEER)” value in data set [3] (BisEDT as solid, 1 μg/cm^2, 8, 24 and 48H exposure) is “Loss of tissue integrity is observed”; in [3] (setting [7]), “no significant effect on TEER was observed”; in [3] (setting [8]) it was “No significant effect was observed on TEER”; in [3] (BisEDT as solid, 3.33, 33.3 and 333 μg/cm^2, 8, 24 and 48H exposure), “Loss of tissue integrity is observed”; in data set [3] (BisEDT as solid, all tested doses (0.033-333 μg/cm^2), 1 hour exposure), “no significant effect on TEER is observed”; in [3] (setting [9]), “didn't show significant effect on TEER”. Besides, the “cytotoxicity (LDH release)” value in [3] (BisEDT as solid, 1 μg/cm^2, 8, 24 and 48h) is “time- and dose-dependent cytotoxicity is observed”; in data set [3] (setting [7]), “No significant effect on LDH release”; in data set [3] (setting [8]) it was “No significant effect on LDH release”; in [3] (BisEDT as solid, 3.3, 33.3 and 333 μg/cm^2), “time and dose dependent, cytotoxicity is observed”. Besides, in data set [3] (BisEDT as solid, 1 and 3.33 μg/cm^2, 24 h and 48h exposure), the “cytotoxicity (LDH increase, TEER reduction)” value is “induces cytotoxicity”. The “toxicity (LDH, TEER, morphology)” value in data set [3] (BisEDT as solid, 33.3, 333 μg/cm^2) is on record as “strong toxicity was observed”. In addition, in data set [3] (BisEDT in liquid solution 0.001-30 μM, 1, 8, 24 and 48 hours), the “local toxicity on the airway epithelium (morphology, TEER, LDH)” value is “showed no local toxicity”. In addition, the “percentage of cytotoxicity (LDH release)” value in data set [3] (setting [9]) is on record as “LDH release was not altered”. In data set [3] (solubilized BisEDT, all time points up to 48 hours (=20.83 μg/mL)), the “highest tested concentration, no toxic effects observed” value came out at 30 µM. In the data set with E. coli ATCC 25922, the “Expected MIC: acceptable range” value is 0.5 to 2 µg/mL. Moreover, the “Expected MIC: goal” value in the data set with E. coli ATCC 25922 is 1 µg/mL. The “MIC, QC range” value with S. aureus ATCC 29213 [4] was “(0.12-1) μg/mL”. In addition, the “QC Range 24 hr” value in the data set on S. aureus ATCC 29213 [5] is 0.12-1.

Turning to `C[C@@H](O)[C@H]1C(=O)N2C(C(=O)O)=C(S[C@@H]3CN[C@H](C(=O)N(C)C)C3)[C@H](C)[C@H]12` [MEM], the “MIC, QC range” value in the data set with Klebsiella pneumoniae was “(8-64) μg/mL”. Moreover, the MIC amounted to 4 µg/mL (≈ 10.4 µM) in data set [6] (B. cenocepacia isolate 0548 (CIP-R)); 2 µg/mL (≈ 5.22 µM) in [6] (B. cenocepacia isolate 0813 (CPI-I)); 4 µg/mL (≈ 10.4 µM) in data set [6] (B. cenocepacia isolate 1631); 4 µg/mL (≈ 10.4 µM) in [6] (B. cenocepacia isolate 1783); 4 µg/mL (≈ 10.4 µM) in [6] (B. cenocepacia isolate 8555); 4 µg/mL (≈ 10.4 µM) in [6] (B. cepacia isolate 0546). Moreover, the MIC worked out at 2 µg/mL (≈ 5.22 µM) in [6] (B. cepacia isolate 0547); 4 µg/mL (≈ 10.4 µM) in [6] (B. cepacia isolate 1793); 4 µg/mL (≈ 10.4 µM) in data set [6] (B. cepacia isolate 1794); 4 µg/mL (≈ 10.4 µM) in data set [6] (B. cepacia isolate 9040); 2 µg/mL (≈ 5.22 µM) in data set [6] (B. multivorans isolate 1580 (CIP-R)); 4 µg/mL (≈ 10.4 µM) in [6] (B. multivorans isolate 1791). Further, the MIC in [6] (B. multivorans isolate 1795 (MEM-I, CIP-R)) turned out to be 8 µg/mL (≈ 20.9 µM); in data set [6] (B. multivorans isolate 5665 (CIP-I)), 2 µg/mL (≈ 5.22 µM); in [6] (B. multivorans isolate 8952 (CIP-I)), 2 µg/mL (≈ 5.22 µM).
